From paper PMC3447335, “Evaluation of Pseudopteroxazole and Pseudopterosin Derivatives against Mycobacterium tuberculosis and Other Pathogens” (Marine Drugs, 2012)
≈ marks a conversion by molar mass, not a printed value. Where two headings read alike, the source gives them in different places.

Experiments:
M. tuberculosis H37Rv [1] = system: M. tuberculosis H37Rv; parameters: method as in PMID 9145860; conditions: comparison values; cited from earlier work
[2] = system: M. tuberculosis H37Rv (ATCC 27294); experiment: microbe, parasite or virus in culture; type: cell-based, Mycobacterium tuberculosis; conditions: Mycobacterium tuberculosis; for inhibition at 64 µg/mL: % inhibition at 64 μg/mL, read-out: LORA % inh; for MIC: read-out: LORA MIC
NCI-60 cell line = conditions: cited from earlier work
Vero cells = experiment: cells; conditions: Chlorocebus sabaeus; for cytotoxicity at 128 µg/mL: read-out: Vero cell (% inh); for IC50: read-out: Vero cell IC50
[3] = system: M. tuberculosis H37Rv (ATCC 27294); experiment: Microplate Alamar blue assay (MABA); type: cell-based, Mycobacterium tuberculosis; conditions: for SI (Selectivity Index): (Vero Cell IC50)/(M. tuberculosis MIC); for MIC: Mycobacterium tuberculosis
VRE = experiment: Microbroth dilution antibiotic susceptibility assay; type: cell-based, Enterococcus faecium; conditions: Enterococcus, read-out: IC50 VRE
[4] = system: M. diernhoferi (ATCC 19340); experiment: as above; type: cell-based; conditions: Mycolicibacterium diernhoferi
[5] = system: M. smegmatis (ATCC 12051); experiment: as above; type: cell-based; conditions: Mycolicibacterium smegmatis
MRSA = experiment: as above; type: cell-based; conditions: Staphylococcus aureus, read-out: IC50 MRSA
M. tuberculosis H37Rv [6] = system: M. tuberculosis H37Rv; parameters: method as in PMID 12828474; conditions: natural 2 isolated from P. elisabethae, at 12.5 μg/mL (40 μM); cited from earlier work
[7] = non-replicating persistent model
[8] = M. tuberculosis H37Rv (ATCC 27294), replicating, read-out: MABA MIC
[9] = wild-type M. tuberculosis H37Rv, Table 2 experiment, read-out: MABA MIC H37Rv
[10] = ATCC19340, microbroth dilution, read-out: MIC M. diernhoferi
[11] = ATCC12051, microbroth dilution, read-out: MIC M. smegmatis

Row | Compound | inhibition at 64 µg/mL [2] [%] | cytotoxicity at 128 µg/mL (Vero cells) [%] | IC50 (Vero cells) [µg/mL] | SI (Selectivity Index) [3] | MIC [3, 8] [µg/mL] | IC50 (VRE; microbroth dilution) [µg/mL] | MIC [4, 10] [µg/mL] | MIC [5, 11] [µg/mL] | IC50 (MRSA; microbroth dilution) [µg/mL] | IC50 (VRE) [µg/mL] | IC50 (MRSA) [µg/mL] | other results
1 | NC[C@H]1O[C@H](O[C@H]2[C@H](O)[C@@H](O[C@H]3O[C@H](CO)[C@@H](O)[C@H](N)[C@H]3O)[C@H](N)C[C@@H]2N)[C@H](O)[C@@H](O)[C@@H]1O [kanamycin] | – | – | – | – | – | – | – | – | – | – | – | MIC of first and second line TB treatments (M. tuberculosis H37Rv [1]): 2.5 to 10.3 µM
2 | CC(C)=C[C@@H]1C[C@H](C)[C@H]2CC[C@H](C)c3c2c1c(C)c1ncoc31 [Compound 1, pseudopteroxazole] | 99.7 | 0 | > 128 | >8.6 | 15 | – | – | – | – | – | – | MIC [2, 7]: 50 µg/mL; MIC ([2]; value given in μM): 162 µM; cytotoxicity against the NCI-60 cell line assay (NCI-60 cell line): no significant cytotoxicity; MIC [3, 9]: 7 µg/mL
3 | CCCCCOc1c(C)c2c3c(c1O)[C@@H](C)CC[C@@H]3[C@@H](C)C[C@H]2C=C(C)C [Compound 8, 10-Pentoxy-pseudopterosin G–J Aglycone] | 35.1 | – | 49 (≈ 132 µM) | – | > 128 | 22 (≈ 59.4 µM) | > 128 | > 128 | 47 (≈ 127 µM) | – | – | –
4 | COc1c(C)c2c3c(c1OC(=O)N(C)C)[C@@H](C)CC[C@@H]3[C@@H](C)C[C@H]2C=C(C)C [Compound 12, 9-Dimethylcarbamoyloxy-10-methoxy-pseudopterosin G–J Aglycone] | 80 | 0 | > 128 | – | > 128 | – | – | – | – | 70 (≈ 182 µM) | > 128 | MIC ([4]; ATCC19340, read-out: MIC M. diernhoferi): > 64 µg/mL; MIC ([5]; ATCC12051, read-out: MIC M. smegmatis): 64 µg/mL (≈ 166 µM)
5 | COc1c(C)c2c3c(c1OC)[C@@H](C)CC[C@@H]3[C@@H](C)C[C@H]2C=C(C)C [Compound 10, 9,10-Dimethoxy-pseudopterosin G–J Aglycone] | 77.5 | – | 51 (≈ 155 µM) | – | > 128 | 25 (≈ 76.1 µM) | > 64 | > 64 | > 128 | – | – | –
6 | CC[C@@H](CO)NCCN[C@@H](CC)CO [ethambutol] | – | – | – | – | – | – | – | – | – | – | – | MIC of first and second line TB treatments (M. tuberculosis H37Rv [1]): 4.6 to 9.2 µM
7 | CC(C)=CC1CC(C)C2CCC(C)c3c2c1c(C)c1nc(Cc2cnc[nH]2)oc31 (stereo not shown) [7a/7b] | 92.5 | 4 | > 128 | >9.7 | 13 | – | 2 (≈ 5.13 µM) | 4 (≈ 10.3 µM) | – | 7.5 (≈ 19.3 µM) | 3 (≈ 7.7 µM) | MIC [2, 7]: 12 µg/mL; MIC ([2]; value given in μM): 31 µM; MIC ([3]; MABA, value given in μM, read-out: MIC against M. tuberculosis H37Rv): 34 µM
8 | CC(C)=C[C@@H]1C[C@H](C)[C@H]2CC[C@H](C)c3c(O)c(O)c(C)c1c32 [Compound 4, pseudopterosin G–J aglycone] | 53.1 | – | 50 (≈ 166 µM) | – | > 128 | > 128 | 8 (≈ 26.6 µM) | 8 (≈ 26.6 µM) | 88 (≈ 293 µM) | – | – | –
9 | CC(C)=C[C@@H]1C[C@H](C)[C@H]2CC[C@H](C)c3c2c1c(C)c1nccnc31 [Compound 5, Pseudopteroquinoxaline] | 99.9 | – | 22 (≈ 68.6 µM) | 0.8 | 29 | > 128 | 64 (≈ 200 µM) | 16 (≈ 49.9 µM) | > 128 | – | – | –
10 | COc1c(O)c(OC)c(CC=C(C)C)c(CC=C(C)C)c1CC=C(C)C [Compound 16, 2,6-Dimethoxy-3,4,5-tris(3-methylbut-2-enyl)phenol] | 79.7 | 29 | > 128 | >2.3 | 56 | – | 8 (≈ 22.3 µM) | > 128 | – | 3 (≈ 8.37 µM) | > 128 | –
11 | COc1c(C)c2c3c(c1O)[C@@H](C)CC[C@@H]3[C@@H](C)C[C@H]2C=C(C)C [Compound 9] | 99.7 | 26 | > 128 | >4.3 | 30 | 12 (≈ 38.2 µM) | 4 (≈ 12.7 µM) | 4 (≈ 12.7 µM) | 9 (≈ 28.6 µM) | – | – | MIC [2, 7]: 52 µg/mL
12 | CO[C@H]1/C=C/O[C@@]2(C)Oc3c(C)c(O)c4c(O)c(c(/C=N/N5CCN(C)CC5)c(O)c4c3C2=O)NC(=O)/C(C)=C\C=C\[C@H](C)[C@H](O)[C@@H](C)[C@@H](O)[C@@H](C)[C@H](OC(C)=O)[C@@H]1C [Rifampin, reference compound] | – | – | – | – | 0.04 | 0.88 (≈ 1.07 µM) | 4 (≈ 4.86 µM) | 4 (≈ 4.86 µM) | – | – | – | MIC [2]: 0.93 µg/mL; MIC [3, 9]: 0.03 µg/mL
13 | N[C@@H]1CON=C1O [cycloserine] | – | – | – | – | – | – | – | – | – | – | – | MIC of first and second line TB treatments (M. tuberculosis H37Rv [1]): 122 to 490 µM
14 | COc1c(C)c2c3c(c1OS(=O)(=O)C(F)(F)F)[C@@H](C)CC[C@@H]3[C@@H](C)C[C@H]2C=C(C)C [Compound 11, 9-Trifluoromethylsulfonyloxy-10-methoxy-pseudopterosin G–J Aglycone] | 37.5 | – | 51 (≈ 114 µM) | – | > 128 | > 128 | > 64 | > 64 | > 128 | – | – | –
15 | capreomycin | – | – | – | – | – | – | – | – | – | – | – | MIC of first and second line TB treatments (M. tuberculosis H37Rv [1]): 0.94 to 3.7 µM
16 | CCCCCc1nc2c(C)c3c4c(c2o1)[C@@H](C)CC[C@@H]4[C@@H](C)C[C@H]3C=C(C)C [Compound 2, homopseudopteroxazole] | 22.6 | 0 | > 128 | – | > 128 | – | – | – | – | – | – | inhibition against M. tuberculosis H37Rv (M. tuberculosis H37Rv [6]): 80%; activity against M. tuberculosis H37Rv ([3]; semi-synthetic material, MABA): not active
17 | COc1ccc(CC=C(C)C)c(OC)c1O [Compound 14, 2,6-Dimethoxy-3-(3-methylbut-2-enyl)phenol] | -4.7 | – | 44 (≈ 198 µM) | – | > 128 | – | 64 (≈ 288 µM) | 128 (≈ 576 µM) | – | > 128 | > 128 | –
18 | CN[C@H](CC(C)C)C(=O)N[C@H]1C(=O)N[C@@H](CC(N)=O)C(=O)N[C@H]2C(=O)N[C@H]3C(=O)N[C@H](C(=O)N[C@H](C(=O)O)c4cc(O)cc(O)c4-c4cc3ccc4O)[C@H](O)c3ccc(c(Cl)c3)Oc3cc2cc(c3O[C@@H]2O[C@H](CO)[C@@H](O)[C@H](O)[C@H]2O[C@H]2C[C@](C)(N)[C@H](O)[C@H](C)O2)Oc2ccc(cc2Cl)[C@H]1O [Vancomycin, reference compound] | – | – | – | – | – | – | – | – | – | – | 1.23 (≈ 0.849 µM) | –
19 | COc1ccc(CC=C(C)C)c(OC)c1O[C@@H]1O[C@H](CO)[C@H](O)[C@H](O)[C@H]1O [Compound 20, 2,6-Dimethoxy-3-(3-methylbut-2-enyl)phenol-β-D-galactopyranoside] | -24.8 | – | 82 (≈ 213 µM) | – | > 128 | – | > 128 | > 128 | – | > 128 | > 128 | –
20 | COc1cc(CC=C(C)C)c(CC=C(C)C)c(OC)c1O [Compound 15, 2,6-Dimethoxy-3,4-bis(3-methylbut-2-enyl)phenol] | 99.7 | – | 64 (≈ 220 µM) | 1.1 | 59 | – | 8 (≈ 27.5 µM) | 8 (≈ 27.5 µM) | – | 3 (≈ 10.3 µM) | 20 (≈ 68.9 µM) | MIC [2, 7]: 58 µg/mL
